Test results published in article PMC7934871 (JCI Insight, 2021).

What was measured:
[1] = tested on: HCT116 cells; assay: Cell proliferation assay (CellTiter-Glo); type: cell-based, human; conditions: HCT116, 10 μg/mL (approximately 1 μM) every day, day 7, CellTiter-Glo
Source text: Figure 3 PS-acet.-STAT3 peptide inhibits STAT3 activity and downregulates the expression of STAT3 targets. (A) Downregulation of STAT3 activity and its downstream target proteins shown in human HCT116 colorectal cancer cells by Western blotting (data represent 1 of the 3 experiments, n = 3). PO-acet.-STAT3 and PS-STAT3-K685R peptides were used in parallel as controls. (B) STAT3 inhibition regulated the expression of proliferation and apoptotic genes, assessed by real-time quantitative PCR. Data present mean ± SD, n = 3 independent experiments, 1-way ANOVA; ***P < 0.005; **P < 0.01. […] For p53 promoter assay, data represent 3 replicates in 3 independent experiments (n = 9). For cell proliferation assay, data represent 3 independent experiments. SD is shown (n = 3). One-way ANOVA; ***P < 0.005; **P < 0.01.
HCT116 cells were seeded in a 96-well plate at a density of 6000/well. Starting the following day, cells were treated every day with 10 μg/mL (approximately 1 μM) PO- or PS-peptides. On day 7, cell proliferation was measured based on ATP production using bioluminescence detection kit for ATP measurement (CellTiter-Glo, Promega), according to manufacturer’s instruction.

[2] = tested on: HCT116 xenografted tumors
Experimental: For in vivo study, HCT116 cells were subcutaneously engrafted into NSG mice. After tumors reached an average size of approximately 5 mm, mice were locally treated with 1 mg/kg of FAM-labeled PS-unacet.-STAT3, PS-STAT3-K685R, or PS-acet.-STAT3 peptides (Anaspec) every day for 35 days. Twenty-four hours after the last treatment, tumors were harvested and analyzed by IF staining and 20× immersion objective on LSM 700 confocal microscope (ZEISS). Images were quantified using Zen software (ZEISS).
Supplemental Figure 5 (related to Figure 2). […]
(C to G) Subcutaneous HCT116 xenografts treated with FAM-labeled PS-unacet.-STAT3, PS-STAT3-K685R or PS-acet.-STAT3 peptides every other day at 1 mg/kg for 40 days.
(C) Retention of PS-acet.-STAT3 peptide was visualized with IF staining of tissue sections followed by confocal microscopy. n= 6 tumor tissues. Scales, 50 µm.
(E) The mRNA levels of CASP9, BIRC5 and BCL2L1 from the same tumor tissues described above were assessed by qRT-PCR. SD is shown. n= 3 independent experiments. One-way […]
(F) IF staining of cell proliferation (Ki-67) and vascularization (CD-31) markers upon peptide treatments in HCT116 tumor tissues. Scales; 50 and 100 µm (upper panels). The lower panels show the quantification of Ki-67 and CD-31. n= 6 tumor tissues.
Same protein samples were used from (D).
Aftabizadeh and Li et al., Figure S5

Substance: PDIPKEEAFGK685(Ac)YCRPESQEHPC-linker-T*C*C*A*T*G*A*G*C*T*T*C*C*T*G*A*T*G*C*T [PS-acet.-STAT3 peptide]
- cell proliferation [1]: decrease
- tumor progression (proliferation marker Ki-67 and angiogenesis marker CD31) ([2]; HCT116 xenograft, 1 mg/kg local, IF staining): effectively inhibited
- STAT3 phosphorylation in tumors ([2]; HCT116 xenograft, 1 mg/kg local, immunoprecipitation and Western blotting): effectively inhibited
- transcriptional regulation (CASP9, BIRC5, BCL2L1 mRNA) in tumors ([2]; HCT116 xenograft, 1 mg/kg local, qRT-PCR): effectively inhibited
- acetylation of STAT3 in tumors ([2]; HCT116 xenograft, same samples as STAT3 phosphorylation): only moderately suppressed
- cellular retention of peptide in tumors in vivo ([2]; mouse, in vivo, 1 mg/kg): retained in tumors at significantly higher levels
